{"source": "patent US9499550B2", "about": "(BRISTOL-MYERS SQUIBB COMPANY, priority 2012, dated 2016)", "key": {"[1]": {"test_system": "HCV genotype 1b (Con1) replicon in HUH-7 cells", "test": "HCV replicon luciferase reporter assay, genotype 1b", "type": "cell-based", "conditions": "HCV genotype 1b replicon luciferase, 3 days incubation, read-out: LE_1b (EC50, range)", "how_it_was_run": "(§1)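 Replicon inhibition for both genotypes was measured as Renilla luciferase signal (EnduRen, 7.5 μM final, 2 h) after 3-day, 37° C exposure of replicon-bearing HUH-7 cells in 4% FCS DMEM, 0.5% DMSO. The 1b construct carries S1179I; the 1a H77 construct carries P1496L and S2204I. Twenty-point, 3-fold dilutions were fitted four-parametrically for EC50, and CC50 was taken from multiplexed Cell Titer-Blue.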"}, "[2]": {"test_system": "HCV genotype 1a (H77 strain) replicon in HUH-7 cells", "test": "HCV replicon luciferase reporter assay, genotype 1a", "type": "cell-based", "conditions": "HCV genotype 1a replicon luciferase, 3 days incubation, read-out: LE_1a (EC50, range)", "how_it_was_run": "as §1"}}, "note": "Read-outs that look alike come from different tables or passages of the source."}
{"smiles": "C[C@H]1CC/C=C\\[C@@H]2C[C@@]2(C(=O)NS(=O)(=O)C2(CF)CC2)NC(=O)[C@@H]2C[C@@H](Oc3nc4c(c5ccccc35)OCCC4)CN2C(=O)[C@@H](NC(=O)OC(C)(C)C(C)(F)F)[C@H](C)C1", "note": "[Compound 6039, 3,3-difluoro-2-methylbutan-2-yl((2R,6S,7R,9S,13aS,14aR,16aS,Z)-2-((3,4-dihydro-2H-pyrano[3,2-c]isoquinolin-6-yl)oxy)-14a-(((1-(fluoromethyl)cyclopropyl)sulfonyl)carbamoyl)-7,9-dimethyl-5,16-dioxo-1,2,3,5,6,7,8,9,10,11,13a,14,14a,15,16,16a-hexadecahydrocyclopropa[e]pyrrolo[1,2-a][1,4]diazacyclopentadecin-6-yl)carbamate]", "values": [{"measurement": "EC50", "setting": "[1]", "value": "5.01 to 35", "unit": "nM"}, {"measurement": "EC50", "setting": "[2]", "value": "5.01 to 35", "unit": "nM"}]}
{"smiles": "C[C@@H]1CC/C=C\\[C@@H]2C[C@@]2(C(=O)NS(=O)(=O)C2(CF)CC2)NC(=O)[C@@H]2C[C@@H](Oc3nc4c(c5ccccc35)OCCC4)CN2C(=O)[C@@H](NC(=O)OC(C)(C)C(C)(F)F)[C@H](C)C1", "note": "[Compound 6040, 3,3-difluoro-2-methylbutan-2-yl((2R,6S,7R,9R,13aS,14aR,16aS,Z)-2-((3,4-dihydro-2H-pyrano[3,2-c]isoquinolin-6-yl)oxy)-14a-(((1-(fluoromethyl)cyclopropyl)sulfonyl)carbamoyl)-7,9-dimethyl-5,16-dioxo-1,2,3,5,6,7,8,9,10,11,13a,14,14a,15,16,16a-hexadecahydrocyclopropa[e]pyrrolo[1,2-a][1,4]diazacyclopentadecin-6-yl)carbamate]", "values": [{"measurement": "EC50", "setting": "[1]", "value": "0.51 to 1", "unit": "nM"}, {"measurement": "EC50", "setting": "[2]", "value": "1.01 to 5", "unit": "nM"}]}
{"smiles": "C[C@@H]1CC/C=C\\[C@@H]2C[C@@]2(C(=O)NS(=O)(=O)C2(CF)CC2)NC(=O)[C@@H]2C[C@@H](Oc3nc4c(c5ccccc35)CCCO4)CN2C(=O)[C@@H](NC(=O)OC(C)(C)C)[C@H](C)C1", "note": "[Compound 6042, tert-butyl ((2R,6S,7R,9R,13aS,14aR,16aS,Z)-2-((2,3-dihydro-1H-pyrano[2,3-c]isoquinolin-6-yl)oxy)-14a-(((1-(fluoromethyl)cyclopropyl)sulfonyl)carbamoyl)-7,9-dimethyl-5,16-dioxo-1,2,3,5,6,7,8,9,10,11,13a,14,14a,15,16,16a-hexadecahydrocyclopropa[e]pyrrolo[1,2-a][1,4]diazacyclopentadecin-6-yl)carbamate]", "values": [{"measurement": "EC50", "setting": "[1]; Hepatitis C virus, Huh-7, 72 h", "value": "0.51 to 1", "unit": "nM"}, {"measurement": "EC50", "setting": "[2]; Hepatitis C virus, Huh-7, 72 h", "value": "1.01 to 5", "unit": "nM"}]}
{"smiles": "C[C@@H]1CC/C=C\\[C@@H]2C[C@@]2(C(=O)NS(=O)(=O)C2(C)CC2)NC(=O)[C@@H]2C[C@@H](Oc3nc4c(c5ccccc35)CCCO4)CN2C(=O)[C@@H](NC(=O)OC(C)(C)C)[C@H](C)C1", "note": "[Compound 6044, tert-butyl ((2R,6S,7R,9R,13aS,14aR,16aS,Z)-2-((2,3-dihydro-1H-pyrano[2,3-c]isoquinolin-6-yl)oxy)-7,9-dimethyl-14a-(((1-methylcyclopropyl)sulfonyl)carbamoyl)-5,16-dioxo-1,2,3,5,6,7,8,9,10,11,13a,14,14a,15,16,16a-hexadecahydrocyclopropa[e]pyrrolo[1,2-a][1,4]diazacyclopentadecin-6-yl)carbamate]", "values": [{"measurement": "EC50", "setting": "[1]; Hepatitis C virus, Huh-7, 72 h", "value": "0.1 to 0.5", "unit": "nM"}, {"measurement": "EC50", "setting": "[2]; Hepatitis C virus, Huh-7, 72 h", "value": "1.01 to 5", "unit": "nM"}]}
{"smiles": "C[C@@H]1CC/C=C\\[C@@H]2C[C@@]2(C(=O)NS(=O)(=O)C2(C)CC2)NC(=O)[C@@H]2C[C@@H](Oc3nc4c(c5ccccc35)CCCO4)CN2C(=O)[C@@H](NC(=O)OC(C)(C)C(F)(F)F)[C@H](C)C1", "note": "[Compound 6046, 1,1,1-trifluoro-2-methylpropan-2-yl((2R,6S,7R,9R,13aS,14aR,16aS,Z)-2-((2,3-dihydro-1H-pyrano[2,3-c]isoquinolin-6-yl)oxy)-7,9-dimethyl-14a-(((1-methylcyclopropyl)sulfonyl)carbamoyl)-5,16-dioxo-1,2,3,5,6,7,8,9,10,11,13a,14,14a,15,16,16a-hexadecahydrocyclopropa[e]pyrrolo[1,2-a][1,4]diazacyclopentadecin-6-yl)carbamate]", "values": [{"measurement": "EC50", "setting": "[1]; Hepatitis C virus, Huh-7, 72 h", "value": "0.51 to 1", "unit": "nM"}, {"measurement": "EC50", "setting": "[2]; Hepatitis C virus, Huh-7, 72 h", "value": "1.01 to 5", "unit": "nM"}]}
{"smiles": "C[C@@H]1CC/C=C\\[C@@H]2C[C@@]2(C(=O)NS(=O)(=O)C2(C)CC2)NC(=O)[C@@H]2C[C@@H](Oc3nc4c(c5ccccc35)CCCO4)CN2C(=O)[C@@H](NC(=O)OC(C)(C)C(C)(F)F)[C@H](C)C1", "note": "[Compound 6048, 3,3-difluoro-2-methylbutan-2-yl((2R,6S,7R,9R,13aS,14aR,16aS,Z)-2-((2,3-dihydro-1H-pyrano[2,3-c]isoquinolin-6-yl)oxy)-7,9-dimethyl-14a-(((1-methylcyclopropyl)sulfonyl)carbamoyl)-5,16-dioxo-1,2,3,5,6,7,8,9,10,11,13a,14,14a,15,16,16a-hexadecahydrocyclopropa[e]pyrrolo[1,2-a][1,4]diazacyclopentadecin-6-yl)carbamate]", "values": [{"measurement": "EC50", "setting": "[1]; Hepatitis C virus, Huh-7, 72 h", "value": "0.1 to 0.5", "unit": "nM"}, {"measurement": "EC50", "setting": "[2]; Hepatitis C virus, Huh-7, 72 h", "value": "1.01 to 5", "unit": "nM"}]}
{"smiles": "C[C@@H]1CC/C=C\\[C@@H]2C[C@@]2(C(=O)NS(=O)(=O)C2(CF)CC2)NC(=O)[C@@H]2C[C@@H](Oc3nc4c(c5ccccc35)CCCO4)CN2C(=O)[C@@H](NC(=O)OC(C)(C)C(F)(F)F)[C@H](C)C1", "note": "[Compound 6050, 1,1,1-trifluoro-2-methylpropan-2-yl((2R,6S,7R,9R,13aS,14aR,16aS,Z)-2-((2,3-dihydro-1H-pyrano[2,3-c]isoquinolin-6-yl)oxy)-14a-(((1-(fluoromethyl)cyclopropyl)sulfonyl)carbamoyl)-7,9-dimethyl-5,16-dioxo-1,2,3,5,6,7,8,9,10,11,13a,14,14a,15,16,16a-hexadecahydrocyclopropa[e]pyrrolo[1,2-a][1,4]diazacyclopentadecin-6-yl)carbamate]", "values": [{"measurement": "EC50", "setting": "[1]; Hepatitis C virus, Huh-7, 72 h", "value": "0.1 to 0.5", "unit": "nM"}, {"measurement": "EC50", "setting": "[2]; Hepatitis C virus, Huh-7, 72 h", "value": "1.01 to 5", "unit": "nM"}]}
{"smiles": "C[C@@H]1CC/C=C\\[C@@H]2C[C@@]2(C(=O)NS(=O)(=O)C2(CF)CC2)NC(=O)[C@@H]2C[C@@H](Oc3nc4c(c5ccccc35)CCCO4)CN2C(=O)[C@@H](NC(=O)OC(C)(C)C(C)(F)F)[C@H](C)C1", "note": "[Compound 6052, 3,3-difluoro-2-methylbutan-2-yl((2R,6S,7R,9R,13aS,14aR,16aS,Z)-2-((2,3-dihydro-1H-pyrano[2,3-c]isoquinolin-6-yl)oxy)-14a-(((1-(fluoromethyl)cyclopropyl)sulfonyl)carbamoyl)-7,9-dimethyl-5,16-dioxo-1,2,3,5,6,7,8,9,10,11,13a,14,14a,15,16,16a-hexadecahydrocyclopropa[e]pyrrolo[1,2-a][1,4]diazacyclopentadecin-6-yl)carbamate]", "values": [{"measurement": "EC50", "setting": "[1]; Hepatitis C virus, Huh-7, 72 h", "value": "0.1 to 0.5", "unit": "nM"}, {"measurement": "EC50", "setting": "[2]; Hepatitis C virus, Huh-7, 72 h", "value": "5.01 to 35", "unit": "nM"}]}
{"smiles": "CC[C@@H]1C[C@H](C)CC/C=C\\[C@@H]2C[C@@]2(C(=O)NS(=O)(=O)C2(C)CC2)NC(=O)[C@@H]2C[C@@H](Oc3nc4c(c5ccccc35)CCCO4)CN2C(=O)[C@H]1NC(=O)OC(C)(C)C(F)(F)F", "note": "[Compound 6054, 1,1,1-trifluoro-2-methylpropan-2-yl((2R,6S,7R,9R,13aS,14aR,16aS,Z)-2-((2,3-dihydro-1H-pyrano[2,3-c]isoquinolin-6-yl)oxy)-7-ethyl-9-methyl-14a-(((1-methylcyclopropyl)sulfonyl)carbamoyl)-5,16-dioxo-1,2,3,5,6,7,8,9,10,11,13a,14,14a,15,16,16a-hexadecahydrocyclopropa[e]pyrrolo[1,2-a][1,4]diazacyclopentadecin-6-yl)carbamate]", "values": [{"measurement": "EC50", "setting": "[1]; Hepatitis C virus, Huh-7, 72 h", "value": "0.1 to 0.5", "unit": "nM"}, {"measurement": "EC50", "setting": "[2]; Hepatitis C virus, Huh-7, 72 h", "value": "1.01 to 5", "unit": "nM"}]}
{"smiles": "CC[C@@H]1C[C@H](C)CC/C=C\\[C@@H]2C[C@@]2(C(=O)NS(=O)(=O)C2(C)CC2)NC(=O)[C@@H]2C[C@@H](Oc3nc4c(c5ccccc35)CCCO4)CN2C(=O)[C@H]1NC(=O)OC(C)(C)C(C)(F)F", "note": "[Compound 6056, 3,3-difluoro-2-methylbutan-2-yl((2R,6S,7R,9R,13aS,14aR,16aS,Z)-2-((2,3-dihydro-1H-pyrano[2,3-c]isoquinolin-6-yl)oxy)-7-ethyl-9-methyl-14a-(((1-methylcyclopropyl)sulfonyl)carbamoyl)-5,16-dioxo-1,2,3,5,6,7,8,9,10,11,13a,14,14a,15,16,16a-hexadecahydrocyclopropa[e]pyrrolo[1,2-a][1,4]diazacyclopentadecin-6-yl)carbamate]", "values": [{"measurement": "EC50", "setting": "[1]; Hepatitis C virus, Huh-7, 72 h", "value": "0.1 to 0.5", "unit": "nM"}, {"measurement": "EC50", "setting": "[2]; Hepatitis C virus, Huh-7, 72 h", "value": "1.01 to 5", "unit": "nM"}]}
{"smiles": "C[C@@H]1CC/C=C\\[C@@H]2C[C@@]2(C(=O)NS(=O)(=O)C2(C)CC2)NC(=O)[C@@H]2C[C@@H](Oc3nccc4c5c(ccc34)CCCO5)CN2C(=O)[C@@H](NC(=O)OC(C)(C)C(F)(F)F)[C@H](C)C1", "note": "[Compound 6058, 1,1,1-trifluoro-2-methylpropan-2-yl((2R,6S,7R,9R,13aS,14aR,16aS,Z)-2-((3,4-dihydro-2H-pyrano[2,3-f]isoquinolin-7-yl)oxy)-7,9-dimethyl-14a-(((1-methylcyclopropyl)sulfonyl)carbamoyl)-5,16-dioxo-1,2,3,5,6,7,8,9,10,11,13a,14,14a,15,16,16a-hexadecahydrocyclopropa[e]pyrrolo[1,2-a][1,4]diazacyclopentadecin-6-yl)carbamate]", "values": [{"measurement": "EC50", "setting": "[1]; Hepatitis C virus, Huh-7, 72 h", "value": "0.51 to 1", "unit": "nM"}, {"measurement": "EC50", "setting": "[2]; Hepatitis C virus, Huh-7, 72 h", "value": "1.01 to 5", "unit": "nM"}]}
{"smiles": "C[C@@H]1CC/C=C\\[C@@H]2C[C@@]2(C(=O)NS(=O)(=O)C2(C)CC2)NC(=O)[C@@H]2C[C@@H](Oc3nccc4c5c(ccc34)CCCO5)CN2C(=O)[C@@H](NC(=O)OC(C)(C)C(C)(F)F)[C@H](C)C1", "note": "[Compound 6060, 3,3-difluoro-2-methylbutan-2-yl((2R,6S,7R,9R,13aS,14aR,16aS,Z)-2-((3,4-dihydro-2H-pyrano[2,3-f]isoquinolin-7-yl)oxy)-7,9-dimethyl-14a-(((1-methylcyclopropyl)sulfonyl)carbamoyl)-5,16-dioxo-1,2,3,5,6,7,8,9,10,11,13a,14,14a,15,16,16a-hexadecahydrocyclopropa[e]pyrrolo[1,2-a][1,4]diazacyclopentadecin-6-yl)carbamate]", "values": [{"measurement": "EC50", "setting": "[1]; Hepatitis C virus, Huh-7, 72 h", "value": "1.01 to 5", "unit": "nM"}, {"measurement": "EC50", "setting": "[2]; Hepatitis C virus, Huh-7, 72 h", "value": "1.01 to 5", "unit": "nM"}]}
